From patent publication US20170267750A1, “Method of Treating Ovarian and Renal Cancer Using Antibodies Against T Cell Immunoglobulin Domain and Mucin Domain 1 (TIM-1) Antigen” (Celldex Therapeutics, Inc., priority 2005, published 2017)
Where a name gives a salt, the structure may show the parent alone.

Tests used:
BT549 cells = experiment: Antibody mediated toxin killing clonogenic assay (saporin conjugated secondary antibody), BT549; assay type: cell-based, human; settings: EGFR mAb at 100 ng/mL with saporin secondary
Protocol: (§1) A clonogenic assay as described in the art was used to determine whether primary antibodies can induce cancer cell death when used in combination with a saporin toxin conjugated secondary antibody reagent. Kohls and Lappi, Biotechniques, 28(1):162-5 (2000).
(§2) ACHN and BT549 cells were plated onto flat bottom tissue culture plates at a density of 3000 cells per well. On day 2 or when cells reached ˜25% confluency, 100 ng/well secondary mAb-toxin (goat anti-human IgG-saporin; Advanced Targeting Systems; HUM-ZAP; cat. no. IT-22) was added. A positive control anti-EGFR antibody, mAb 2.7.2, mAb 2.59.2, or an isotype control mAb was then added to each well at the desired concentration (typically 1 to 500 ng/mL). On day 5, the cells were trypsinized, transferred to a 150 mm tissue culture dish, and incubated at 37° C. Plates were examined daily. On days 10-12, all plates were Giemsa stained and colonies on the plates were counted. Plating efficiency was determined by comparing the number of cells prior to transfer to 150 mm plates to the number of colonies that eventually formed.
(§3) The percent viability in antigen positive ACHN and antigen negative BT549 cell lines are presented in FIG. 4 and FIG. 5 respectively.

ACHN cells = experiment: Antibody mediated toxin killing clonogenic assay (saporin conjugated secondary antibody), ACHN; assay type: cell-based, human; settings: EGFR mAb at 100 ng/mL with saporin secondary
Protocol: as §1, §2, §3

[1] = test system: IGROV1 ovarian carcinoma xenografts; experiment: Human ovarian carcinoma xenograft model (IGROV1) in athymic mice; assay type: in vivo, athymic mice (CD-1 nu/nu females)
Protocol: An in vivo study was performed to assess the potency and therapeutic efficacy of the antibody-drug conjugate, CR014-vcMMAE, against an established human IGROV-1 ovarian xenograft in athymic mice.
Test Animals: Five- to 6-week old athymic mice (CD-1 nu/nu females), used for human tumor xenografts, were obtained from Charles Rivers Laboratories (Wilmington, Del.). Animals were housed in specific pathogen-free conditions, according to the guidelines of the Association for Assessment and Accreditation of Laboratory Animal Care International (AAALAC International). Test animals were provided pelleted food and water ad libitum and kept in a room with conditioned ventilation (HVAC), temperature (22°±2° C.), relative humidity (55%±15%), and photoperiod (12 hr). All studies were carried out with approved institutional animal care and use protocols. Contract Research Organizations. Experiments in vivo were conducted at Southern Research Institute (Birmingham, Ala.).
Human Ovarian Carcinoma Xenograft Model. The tumor inhibitory activity of the CR014-MMAE immunoconjugate was measured in an anti-tumor xenograft model using athymic mice, according to published methods (Geran R I, Greenberg N H, Macdonald M M, Schumacher A M and Abbott B J (1972) Protocols for screening chemical agents and natural products against animal tumors and other biological systems. Cancer Chemother Rep 3:1-104).
Briefly, test animals were implanted subcutaneously by trocar with small fragments of the IGROV1 carcinoma (30-60 mg) excised from athymic mouse tumor donors. […]
The IGROV1 ovarian carcinoma was derived from a person in 1985, and was obtained from the American Type Culture Collection. The effects of treatment were monitored by repetitive tumor measurements across 2 diameters with Vernier calipers; tumor size (in mg) was calculated using a standard formula, (W^2×L)/2, assuming a specific gravity of 1.0. Tumor size and body weights were assessed twice weekly. […]

## O=c1[nH]cc(F)c(=O)[nH]1 [5-FU, 5 Fluorouracil, reference compound]
BT549 cells
  killing in clonogenic assay (controls): almost complete killing
ACHN cells
  killing in clonogenic assay (controls): almost complete killing

## CC(=O)O[C@H]1C(=O)[C@@]2(C)[C@H]([C@H](OC(=O)c3ccccc3)[C@]3(O)C[C@H](OC(=O)[C@H](O)[C@@H](NC(=O)c4ccccc4)c4ccccc4)C(C)=C1C3(C)C)[C@]1(OC(C)=O)CO[C@@H]1C[C@@H]2O [Paclitaxel, paclitaxel]
[1]; 101 days after the commencement of treatment
  re-growth of tumors during the observation period: not observed
[1]; paclitaxel i.v., 24 mg/kg, q2d×4 (MTD)
  anti-tumor effect: significant tumor growth inhibition

## CC[C@]1(O)C[C@@H]2CN(CCc3c([nH]c4ccccc34)[C@@](C(=O)OC)(c3cc4c(cc3OC)N(C)[C@H]3[C@@](O)(C(=O)OC)[C@H](OC(C)=O)[C@]5(CC)C=CCN6CC[C@]43[C@@H]65)C2)C1 [Vinblastine, vinblastine sulfate]
[1]; vinblastine sulfate i.v., 1.7 mg/kg, q4d×4 (MTD)
  anti-tumor effect: very slight, but not significant, anti-tumor effect
